Laboratory results taken from BindingDB's records for patent US20260069571 (Redx Pharma, 2026).

What was measured:
[1] = biological target: T1, Discoidin domain-containing receptor 2 (Homo sapiens, UniProt Q16832); test: DDR1 and DDR2 Biochemical Assay
T1 sequence (Q16832 whole entry): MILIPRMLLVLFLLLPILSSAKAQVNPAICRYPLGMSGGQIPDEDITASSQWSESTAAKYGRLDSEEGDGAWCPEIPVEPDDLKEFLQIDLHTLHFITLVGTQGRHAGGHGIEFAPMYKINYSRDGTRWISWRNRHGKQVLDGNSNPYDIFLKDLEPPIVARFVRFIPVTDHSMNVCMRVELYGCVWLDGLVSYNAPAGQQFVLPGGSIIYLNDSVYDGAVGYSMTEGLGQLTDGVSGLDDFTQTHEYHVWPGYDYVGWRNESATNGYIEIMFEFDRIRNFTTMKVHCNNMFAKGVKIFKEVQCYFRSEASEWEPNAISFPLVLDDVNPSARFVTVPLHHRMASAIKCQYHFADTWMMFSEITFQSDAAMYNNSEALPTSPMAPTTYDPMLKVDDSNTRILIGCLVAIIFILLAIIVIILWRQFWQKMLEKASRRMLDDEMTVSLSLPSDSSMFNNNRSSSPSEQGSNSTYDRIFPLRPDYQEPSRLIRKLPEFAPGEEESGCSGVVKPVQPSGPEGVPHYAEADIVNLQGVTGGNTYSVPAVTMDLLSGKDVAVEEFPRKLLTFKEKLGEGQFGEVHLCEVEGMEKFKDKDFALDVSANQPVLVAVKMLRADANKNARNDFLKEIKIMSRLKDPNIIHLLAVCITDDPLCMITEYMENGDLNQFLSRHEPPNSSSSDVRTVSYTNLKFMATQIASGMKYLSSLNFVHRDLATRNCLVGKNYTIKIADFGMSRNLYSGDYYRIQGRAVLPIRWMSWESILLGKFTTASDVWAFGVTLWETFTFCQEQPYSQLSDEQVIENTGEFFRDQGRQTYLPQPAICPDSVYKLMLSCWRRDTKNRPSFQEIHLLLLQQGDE
Method: (§1) The capacity of compounds to bind to DDR1 and DDR2 was quantified using a LanthaScreen Eu Kinase Binding Assay. Recombinant human DDR1 (2.5 nM; aa440-876 containing a GST tag) and DDR2 (1.75 nM; aa427-855 containing a GST tag) were diluted in assay buffer (50 mM HEPES pH7.3, 10 mM MgCl2, 1 mM EGTA and 0.01% Tween) with various concentrations of compound in a 384-well plate and a volume of 5 uL. After a 30-minute incubation at room temperature, 2.5 uL of Eu-anti GST antibody (diluted to 1 nM in assay buffer) plus Kinase Tracer 178 (diluted in assay buffer to 5 nM for DDR1 and 10 nM for DDR2) were added to the plate. Following 60-minute incubation at room temperature, time-resolved fluorescence was measured on a BMG Labtech PHERAstar plate reader. DMSO (1%) and reference compound (1 μM) were used to generate the Max and Min assay signals, respectively. Data was analysed using a four-parameter logistic model to calculate IC50 values, with at least two independent replicates were performed for each compound.

[2] = biological target: Epithelial discoidin domain-containing receptor 1 (Homo sapiens, UniProt Q08345); test: DDR1 and DDR2 Biochemical Assay
Epithelial discoidin domain-containing receptor 1, sequence (Q08345 whole entry, the tested form may be a part): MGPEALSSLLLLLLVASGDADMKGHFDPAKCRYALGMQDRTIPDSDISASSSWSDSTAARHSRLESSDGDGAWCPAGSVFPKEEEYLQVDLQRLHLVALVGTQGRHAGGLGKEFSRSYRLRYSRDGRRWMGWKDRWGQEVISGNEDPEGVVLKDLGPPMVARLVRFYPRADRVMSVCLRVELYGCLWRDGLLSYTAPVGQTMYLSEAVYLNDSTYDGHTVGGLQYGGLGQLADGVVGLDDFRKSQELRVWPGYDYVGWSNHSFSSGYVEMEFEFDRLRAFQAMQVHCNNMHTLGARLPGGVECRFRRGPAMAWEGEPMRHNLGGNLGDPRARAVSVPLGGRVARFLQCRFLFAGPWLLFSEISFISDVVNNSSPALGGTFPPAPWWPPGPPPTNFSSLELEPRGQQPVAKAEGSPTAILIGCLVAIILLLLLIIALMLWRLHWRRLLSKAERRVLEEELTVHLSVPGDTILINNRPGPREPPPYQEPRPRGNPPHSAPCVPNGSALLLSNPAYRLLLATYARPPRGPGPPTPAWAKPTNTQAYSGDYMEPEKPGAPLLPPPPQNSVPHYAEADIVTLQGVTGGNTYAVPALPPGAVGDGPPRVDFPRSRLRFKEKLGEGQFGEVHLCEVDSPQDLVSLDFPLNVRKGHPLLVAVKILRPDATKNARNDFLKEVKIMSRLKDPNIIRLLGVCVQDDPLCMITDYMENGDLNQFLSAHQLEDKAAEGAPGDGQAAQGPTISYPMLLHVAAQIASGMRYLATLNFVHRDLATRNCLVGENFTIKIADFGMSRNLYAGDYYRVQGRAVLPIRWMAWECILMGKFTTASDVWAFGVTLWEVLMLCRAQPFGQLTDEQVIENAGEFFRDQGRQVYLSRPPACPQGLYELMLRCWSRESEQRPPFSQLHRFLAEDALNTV
Method: as §1

Compound | IC50 [1] | IC50 [2]
Cc1n[nH]c2cc(Nc3cccc4c3C(=O)N(CC(=O)NCC(F)(F)F)C4)ccc12 [US20260069571, Example 6] | < 10 nM | < 10 nM
Cn1ncc2cc(Nc3cccc4c3C(=O)N(CC(=O)N3CCCC(C(F)(F)F)C3)C4)ccc21 (stereo not drawn) [US20260069571, Example 12] |  | < 10 nM
